Measurements reported in patent publication US9018209B2, “Compounds and methods for the treatment of viruses and cancer” (Yale University, priority 2005, dated 2015).
Read-outs that look alike come from different tables or passages of the source.

Key:
[1] = system: MT-2 human T-cells; experiment: Cytotoxicity: inhibition of MT-2 cell growth; assay type: cell-based
Source text: The preparation of the analogues 4a-h involved the reaction between 2-bromothiazole 1 with the corresponding 5-amino-2-R-phenol 2, followed by reaction with 4-bromo-2-methyl-2-butene in presence of Cs2CO3 as a base (Scheme 1; see Table 1 for antiviral activities (EC50) and cytotoxicities (IC50) of these compounds, as determined using human MT-2 cells infected with IIIB strain of HIV-1).
See, Ruiz-Caro, supra. and Lin, et al., Biochem. Pharmacol. 1994, 47, 171-174.

[2] = system: IIIB strain of HIV-1; experiment: Anti-HIV-1 activity: protection of infected MT-2 cells, MTT colorimetric method; assay type: cell-based
[3] = Table 3, cytotoxicity, MT-2 cells, read-out: IC50
[4] = Table 3, thiazoles 18-23, N/A read as no activity, read-out: EC50
[5] = Table 1, cytotoxicity, MT-2 cells, read-out: IC50
[6] = Table 1, compounds 4a-h, human MT-2 cells infected with IIIB strain of HIV-1, N/A read as no activity, read-out: EC50
[7] = Table 1a, cytotoxicity, MT-2 cells, read-out: IC50
[8] = Table 1a, heteroaryl derivatives, N/A read as no activity, read-out: EC50
[9] = Table 1B, for 50% inhibition of MT-2 cell growth, triplicate samples
[10] = Table 1B, for 50% protection in MT-2 cells, triplicate samples, NA for EC50 > CC50, read-out: EC50
[11] = Homo sapiens, MT2, Table 3, cytotoxicity, MT-2 cells, read-out: IC50
[12] = Homo sapiens, MT2, Table 1a, cytotoxicity, MT-2 cells, read-out: IC50
[13] = Homo sapiens, MT2, Table of bicyclic-heteroaryl phenyl amines, cytotoxicity, MT-2 cell assays, read-out: IC50

## CCC(C)=CCOc1cc(Nc2nccs2)ccc1C (mixture of isomers) [Compound 18b, (E/Z)-N-(4-methyl-3-(3-methylpent-2-enyloxy)phenyl)thiazol-2-amine]
[1]; [3]
  IC50: 32 µM
[2]; [4]
  EC50: 8 µM

## CCC(C)=CCOc1cc(Nc2nccs2)ccc1CC (mixture of isomers) [Compound 18e, (E/Z)-N-(4-ethyl-3-(3-methylpent-2-enyloxy)phenyl)thiazol-2-amine]
[1]; [3]
  IC50: 29 µM
[2]; [4]
  EC50: 10 µM

## CC(C)=CCOc1cccc(Nc2nccs2)c1 [Compound 4a, N-(3-(3-methylbut-2-enyloxy)phenylthiazol)-2-amine]
[1]; [5]
  IC50: 23 µM
[2]; [6]
  EC50: 10 µM

## CC(C)=CCOc1cc(Nc2nccs2)ccc1C [Compound 4b, N-(4-methyl-3-(3-methylbut-2-enyloxy)phenylthiazol)-2-amine]
[1]; [5]
  IC50: 17 µM
[1]; [7]
  IC50: 17 µM
[2]; [6]
  EC50: 3 µM
[2]; [8]
  EC50: 3 µM

## COc1ccc(Nc2nccs2)cc1OCC=C(C)C [Compound 4c, N-(4-methoxy-3-(3-methylbut-2-enyloxy)phenylthiazol)-2-amine]
[1]; [5]
  IC50: 42 µM
[2]; [6]
  EC50: 3.8 µM

## CC(C)=CCOc1cc(Nc2nccs2)ccc1Cl [Compound 4d, N-(4-chloro-3-(3-methylbut-2-enyloxy)phenylthiazol)-2-amine]
[1]; [5]
  IC50: 26 µM
[1]; [7]
  IC50: 26 µM
[2]; [6]
  EC50: 0.3 µM
[2]; [8]
  EC50: 0.3 µM

## CCc1ccc(Nc2nccs2)cc1OCC=C(C)C [Compound 4e, N-(4-ethyl-3-(3-methylbut-2-enyloxy)phenylthiazol)-2-amine]
[1]; [5]
  IC50: 31 µM
[2]; [6]
  EC50: 5 µM

## CCCc1ccc(Nc2nccs2)cc1OCC=C(C)C [Compound 4f, N-(4-propyl-3-(3-methylbut-2-enyloxy)phenylthiazol)-2-amine]
[1]; [5]
  IC50: 31 µM

## CC(C)=CCOc1cc(Nc2nccs2)ccc1C(C)C [Compound 4g, N-(4-isopropyl-3-(3-methylbut-2-enyloxy)phenylthiazol)-2-amine]
[1]; [5]
  IC50: 23 µM
[2]; [6]
  EC50: 23 µM

## CC(C)=CCOc1cc(Nc2nccs2)ccc1C#N [Compound 4h, N-(4-cyano-3-(3-methylbut-2-enyloxy)phenylthiazol)-2-amine]
[1]; [5]
  IC50: 0.75 µM
[1]; [7]
  IC50: 0.75 µM
[2]; [6]
  EC50: 0.21 µM
[2]; [8]
  EC50: 0.21 µM

## CC(C)=CCOc1cc(Nc2ncnc(Cl)n2)ccc1Cl [Compound 7a]
[1]; [9]
  CC50: 45 µM

## COc1ncnc(Nc2ccc(Cl)c(OCC=C(C)C)c2)n1 [Compound 7b]
[1]; [9]
  CC50: 18 µM
[2]; [10]
  EC50: 0.031 µM

## CC(C)=CCOc1cc(Nc2ncnc(N)n2)ccc1Cl [Compound 7c]
[1]; [9]
  CC50: 48 µM
[2]; [10]
  EC50: 0.39 µM

## CNc1ncnc(Nc2ccc(Cl)c(OCC=C(C)C)c2)n1 [Compound 7d]
[1]; [9]
  CC50: 3.1 µM
[2]; [10]
  EC50: 0.031 µM

## CC(C)=CCOc1cc(Nc2nc(C)nc(Cl)n2)ccc1Cl [Compound 7e]
[1]; [9]
  CC50: 40 µM
[2]; [10]
  EC50: 12 µM

## COc1nc(Cl)nc(Nc2ccc(Cl)c(OCC=C(C)C)c2)n1 [Compound 7f]
[1]; [9]
  CC50: 26 µM

## COc1nc(C)nc(Nc2ccc(Cl)c(OCC=C(C)C)c2)n1 [Compound 7g]
[1]; [9]
  CC50: 12 µM
[2]; [10]
  EC50: 0.1 µM

## COc1nc(Nc2ccc(Cl)c(OCC=C(C)C)c2)nc(OC)n1 [Compound 7h]
[1]; [9]
  CC50: 20 µM
[2]; [10]
  EC50: 0.29 µM

## CC(C)=CCOc1cccc(Nc2nc(C)cs2)c1 [Compound 8a, 4-Methyl-N-(3-(3-methylbut-2-enyloxy)phenyl)thiazol-2-amine]
[1]; Homo sapiens, MT2
  IC50: 26 µM

## CC(C)=CCOc1cc(Nc2nc(C)cs2)ccc1C [Compound 8b, 4-Methyl-N-(4-methyl-3-(3-methylbut-2-enyloxy)phenyl)thiazol-2-amine]
[1]; Homo sapiens, MT2
  IC50: 15 µM

## COc1ccc(Nc2nc(C)cs2)cc1OCC=C(C)C [Compound 8c, 4-Methyl-N-(4-methoxy-3-(3-methylbut-2-enyloxy)phenyl)thiazol-2-amine]
[1]; Homo sapiens, MT2
  IC50: 18 µM

## COc1nc(Nc2ccc(C#N)c(OCC=C(C)C)c2)nc(OC)n1 [Compound 8h]
[1]; [9]
  CC50: > 100 µM
[2]; [10]
  EC50: 0.022 µM

## CSc1ncnc(Nc2ccc(C#N)c(OCC=C(C)C)c2)n1 [Compound 8i]
[1]; [9]
  CC50: 8.4 µM
[2]; [10]
  EC50: 0.005 µM

## COc1nc(N)nc(Nc2ccc(C#N)c(OCC=C(C)C)c2)n1 [Compound 8j]
[1]; [9]
  CC50: 0.11 µM
[2]; [10]
  EC50: 0.009 µM

## CCOC(=O)c1csc(Nc2cccc(OCC=C(C)C)c2)n1 [Compound 9a, Ethyl 2-(3-(3-methylbut-2-enyloxy)phenylamino)thiazole-4-carboxylate]
[1]; Homo sapiens, MT2
  IC50: 21 µM

## CCOC(=O)c1csc(Nc2ccc(C)c(OCC=C(C)C)c2)n1 [Compound 9b, Ethyl 2-(4-methyl-3-(3-methylbut-2-enyloxy)phenylamino)thiazole-4-carboxylate]
[1]; Homo sapiens, MT2
  IC50: 11 µM

## CCOC(=O)c1csc(Nc2ccc(OC)c(OCC=C(C)C)c2)n1 [Compound 9c, Ethyl 2-(4-methoxy-3-(3-methylbut-2-enyloxy)phenylamino)thiazole-4-carboxylate]
[1]; Homo sapiens, MT2
  IC50: 15 µM

## CNc1ccnc(Nc2ccc(Cl)c(OCC=C(C)C)c2)n1 [Compound 9d]
[1]; [9]
  CC50: 0.69 µM
[2]; [10]
  EC50: 0.006 µM

## COc1cc(OC)nc(Nc2ccc(Cl)c(OCC=C(C)C)c2)n1 [Compound 9h]
[1]; [9]
  CC50: 28 µM
[2]; [10]
  EC50: 0.25 µM

## CSc1ccnc(Nc2ccc(Cl)c(OCC=C(C)C)c2)n1 [Compound 9i]
[1]; [9]
  CC50: 2.8 µM
[2]; [10]
  EC50: 0.018 µM

## COc1cc(N)nc(Nc2ccc(Cl)c(OCC=C(C)C)c2)n1 [Compound 9j]
[1]; [9]
  CC50: 19 µM
[2]; [10]
  EC50: 3 µM

## CCOc1ccnc(Nc2ccc(Cl)c(OCC=C(C)C)c2)n1 [Compound 9k]
[1]; [9]
  CC50: 19 µM
[2]; [10]
  EC50: 0.041 µM

## COCc1ccnc(Nc2ccc(Cl)c(OCC=C(C)C)c2)n1 [Compound 9l]
[1]; [9]
  CC50: > 25 µM

## CC(C)=CCOc1cc(Nc2nccc(CO)n2)ccc1Cl [Compound 9m]
[1]; [9]
  CC50: 0.22 µM

## COc1ccnc(Nc2ccc(Cl)c(Oc3ccccc3C)c2)n1 [Compound 11e]
[1]; Table 2b, MT-2 cells
  CC50: 13 µM

## CC(C)=CC(C)Oc1cc(Nc2nccs2)ccc1Cl (centres unmarked) [Compound 19d, N-(4-Chloro-3-(4-methylpent-3-en-2-yloxy)phenyl)thiazol-2-amine]
[1]; [11]
  IC50: 22 µM

## N#Cc1ccc(Nc2nccs2)cc1OC1=CCCC1 [Compound 20h, N-(4-Cyano-3-(cyclopentenyloxy)phenyl)thiazol-2-amine]
[1]; [11]
  IC50: 1.7 µM

## CC1=C(COc2cc(Nc3nccs3)ccc2Cl)CCC1 [Compound 21d, N-(4-Chloro-3-((2-methylcyclopent-1-enyl)methoxy)phenyl)thiazol-2-amine]
[1]; [11]
  IC50: 2.5 µM

## Clc1ccc(Nc2nccs2)cc1OCC1CCCCC1 [Compound 22d, N-(4-Chloro-3-(cyclohexylmethoxy)phenyl)thiazol-2-amine]
[1]; [11]
  IC50: 12 µM

## CCCCCCCOc1cc(Nc2nccs2)ccc1Cl [Compound 23d, N-(4-Chloro-3-(hexylmethoxy)phenyl)thiazol-2-amine]
[1]; [11]
  IC50: 15 µM

## CC(C)=CCOc1cc(Nc2ccccn2)ccc1C [Compound 30b, N-(4-Methyl-3-(3-methylbut-2-enyloxy)phenyl)pyridin-2-amine]
[1]; [12]
  IC50: 35 µM

## CC(C)=CCOc1cc(Nc2ccccn2)ccc1Cl [Compound 30d, N-(4-Chloro-3-(3-methylbut-2-enyloxy)phenyl)pyridin-2-amine]
[1]; [12]
  IC50: 15 µM

## CC(C)=CCOc1cc(Nc2ccccn2)ccc1C#N [Compound 30h, N-(4-Cyano-3-(3-methylbut-2-enyloxy)phenyl)pyridin-2-amine]
[1]; [12]
  IC50: 0.29 µM

## CC(C)=CCOc1cc(Nc2ccnc(N)n2)ccc1C [Compound 45b, N^4-(4-Methyl-3-(3-methylbut-2-enyloxy)phenyl)pyrimidin-2,4-diamine]
[1]; [12]
  IC50: 0.6 µM

## CC(C)=CCOc1cc(Nc2ccnc(N)n2)ccc1Cl [Compound 45d, N^4-(4-Chloro-3-(3-methylbut-2-enyloxy)phenyl)pyrimidin-2,4-diamine]
[1]; [12]
  IC50: 2 µM

## CC(C)=CC(C)Oc1cc(Nc2ncccn2)ccc1Cl (centres unmarked) [Compound 46, N-(4-chloro-3-(4-methylpent-3-en-2-yloxy)phenyl)pyrimidin-2-amine]
[1]; Homo sapiens, MT2, Table 2a, cytotoxicity, MT-2 cells, read-out: IC50
  IC50: 22 µM

## CC1=C(COc2cc(Nc3ncccn3)ccc2Cl)CCC1 [Compound 47]
[1]; Table 2a, cytotoxicity, MT-2 cells, read-out: IC50
  IC50: 2.5 µM

## Cc1ccnc2c1NC(=O)c1cccnc1N2C1CC1 [Nevirapine, nevirapine, reference compound]
[1]; [12]
  IC50: > 10 µM
[1]; [13]
  IC50: > 10 µM
[1]; [9]
  CC50: > 10 µM

## Cc1cc(C#N)cc(C)c1Oc1nc(Nc2ccc(C#N)cc2)nc(N)c1Br [TMC125, etravirine, reference compound]
[1]; [13]
  IC50: > 1 µM
[1]; [9]
  CC50: > 1 µM

## Cc1cn([C@H]2C=C[C@@H](CO)O2)c(=O)[nH]c1=O [d4T, Stavudine, reference compound]
[2]; Human immunodeficiency virus 1, IIIB, text b104, read-out: anti-HIV activities in our assay
  EC50: 3 µM

## (2-3-(3-Methylbut-2-enyloxy)phenylamino)thiazol-4-yl)methanol [Compound 10a]
[1]; Table 2, cytotoxicity, MT-2 cells, read-out: IC50
  IC50: 38 µM

## Ethyl 2-(4-methoxy-3-(3-methylbut-2-enyloxy)phenylamino)thiazole-4-carboxylate [Compound 9c]
[2]; [10]
  EC50: 0.075 µM

## Ethyl 2-(4-methyl-3-(3-methylbut-2-enyloxy)phenylamino)thiazole-4-carboxylate [Compound 9b]
[2]; [10]
  EC50: 0.01 µM
[2]; Table 2b, derivatives of pyrimidine 11, NA for EC50 > CC50, read-out: EC50
  EC50: 0.01 µM
